In one assay the test system is pancreas. To be noted: background statement; cited from earlier work.
Assay [1] concerns subjects with impaired glucose tolerance (IGT). The assay can be described thus: 12 hour oscillatory glucose infusion with constant GLP-1 infusion, subjects with IGT. Format: in vivo, human. Further details: Mean glucose 12 hour GLP-1 / Mean ISR 12 hour GLP-1: unit not given beside the values. As to the method: (§1) The studies described herein were performed in 10 subjects who were divided into two groups on the basis of their plasma glucose response to an oral glucose tolerance test using the criteria of the World Health Organization to define the degree of glucose tolerance. Five subjects had IGT, and five subjects had NIDDM. The gender, age, body mass index (BMI), basal levels of fasting glucose, 2 hour glucose, fasting insulin, and HBA1c for each subject are presented in Table 2. Diabetic subjects were older than those with IGT, but the groups were matched for by BMI. Mean fasting glucose levels and glycosylated hemoglobin concentrations were lower in the IGT group compared to subjects with NIDDM.
(§2) The coefficient of variation of this method was <2%. […] The average intraassay coefficient of variation was 5%. […] Diabetes 27, Suppl 1: 170-177, 1978.
(§3) All results are expressed as mean±SEM. Data analysis was performed using the Statistical Analysis System (SAS Version 6 Edition, for Personal Computers, SAS Institute, Inc., Cary, N.C.). The significance of differences within the individual induced by GLP-1 infusion was determined using paired t tests. Differences were considered to be significant if P<0.05.
(§4) Standard kinetic parameters for C-peptide clearance adjusted for age, sex and body surface area were utilized, Van Cauter E, Mestrez, F, Sturis J, Polonsky K S. Estimation of insulin secretion rates from C-peptide levels: comparison of individual and standard kinetic parameters for C-peptide clearance. Diabetes 41:368-377, 1992. These parameters were used to derive, in each 15 minute interval between blood sampling, the ISR from the plasma C-peptide concentrations by deconvolution as previously described.
(§5) Each subject was studied on three separate occasions. All studies were performed after a 12-hour overnight fast beginning at 0700 unless otherwise stated with subjects in the recumbent position. An intravenous catheter was placed in each forearm, one for blood sampling and one for administration of glucose and GLP-1 as needed. In all experiments, the arm containing the sampling catheter was maintained in a heating blanket to ensure arterialization of the venous sample. In the following examples, the GLP-1 was administered to the subjects in the GLP-1 (7-36) amide form.
(§6) In order to determine whether the β-cells were able to detect and respond to oscillations of glucose, glucose was infused in an oscillatory pattern with a small volume of saline for 12 hours.
(§7) To determine whether insulin secretion was entrained by glucose in individual subjects, the temporal profiles of insulin secretion were analyzed by spectral analysis. Spectral power analysis was used to evaluate the presence of tight coupling between oscillations in glucose and oscillations in ISR. This method evaluated the regularity of insulin secretory oscillations at a predetermined frequency. Spectral peaks correspond to the dominant periodicity and height of the peaks correspond to spectral power. Each spectrum was normalized assuming the total variance of each series to be 100% and was expressed as the normalized spectral power.

A further assay concerns subjects with NIDDM. The assay is described as follows: 12 hour oscillatory glucose infusion with constant GLP-1 infusion, subjects with NIDDM. The format is in vivo, human. Further details: Mean glucose 12 hour GLP-1: unit not given beside the values. As to the method: as §1, §2, §3, §4
The diabetic subjects were treated with diet alone with the exception of one subject D07, who was previously treated with an oral hypoglycemic agent that was discontinued 4 weeks prior to the study. None of the diabetic patients had ever received insulin. All subjects were placed on a weight maintenance diet containing at least 200 g of carbohydrate per day for two weeks before the study.
as §5, §6, §7

Values joined by “and” are separate entries in the source; they are usually repeats but may differ in a detail not shown here. Equal values may be shown once. No end group written: not given here.

Consider “SEQ ID NO:5 (EGTFTSDVSSYLEGQAAKEFIAWLVKGRG; mammalian)”, for which the “production or release of insulin from the pancreas” value with pancreas was “do not stimulate the production or release of insulin from the pancreas”.

Consider `CC[C@H](C)[C@H](NC(=O)[C@H](Cc1ccccc1)NC(=O)[C@H](CCC(=O)O)NC(=O)[C@H](CCCCN)NC(=O)[C@H](C)NC(=O)[C@H](C)NC(=O)[C@H](CCC(N)=O)NC(=O)CNC(=O)[C@H](CCC(=O)O)NC(=O)[C@H](CC(C)C)NC(=O)[C@H](Cc1ccc(O)cc1)NC(=O)[C@H](CO)NC(=O)[C@H](CO)NC(=O)[C@@H](NC(=O)[C@H](CC(=O)O)NC(=O)[C@H](CO)NC(=O)[C@@H](NC(=O)[C@H](Cc1ccccc1)NC(=O)[C@@H](NC(=O)CNC(=O)[C@H](CCC(=O)O)NC(=O)[C@H](C)NC(=O)[C@@H](N)Cc1c[nH]cn1)[C@@H](C)O)[C@@H](C)O)C(C)C)C(=O)N[C@@H](C)C(=O)N[C@@H](Cc1c[nH]c2ccccc12)C(=O)N[C@@H](CC(C)C)C(=O)N[C@H](C(=O)N[C@@H](CCCCN)C(=O)NCC(=O)N[C@@H](CCCNC(=N)N)C(N)=O)C(C)C` [GLP-1, GLP-1 (7-36) amide], for which the “Mean ISR 12 hour GLP-1” value was 654.2 ± 152.1 in assay [1] (IGT group, Mean ± SEM, n=5, GLP-1 0.4 pmol/kg/min for 12 hours); 465.9 and 1042.7 and 365.9 and 1005.8 and 390.9 in assay [1] (individual IGT subjects D01-D05, GLP-1 0.4 pmol/kg/min for 12 hours with oscillatory glucose infusion); 508 ± 53.4 in the assay on subjects with NIDDM (NIDDM group, Mean ± SEM, n=5, GLP-1 0.4 pmol/kg/min for 12 hours); 477.7 and 715.4 and 487.7 and 412.5 and 448.9 with subjects with NIDDM (individual NIDDM subjects D06-D10, GLP-1 0.4 pmol/kg/min for 12 hours with oscillatory glucose infusion). Moreover, the “Mean glucose 12 hour GLP-1” value is 6.35 ± 0.08 in assay [1] (IGT group, Mean ± SEM, n=5, GLP-1 0.4 pmol/kg/min for 12 hours, P<0.05 vs saline); 6.06 and 6.46 and 6.36 and 6.37 and 6.48 in assay [1] (individual IGT subjects D01-D05, GLP-1 0.4 pmol/kg/min i.v. for 12 hours with oscillatory glucose infusion); 9.40 ± 0.9 with subjects with NIDDM (NIDDM group, Mean ± SEM, n=5, GLP-1 0.4 pmol/kg/min for 12 hours, P<0.05 vs saline); 11.53 and 10.51 and 6.24 and 8.84 and 9.90 in the assay with subjects with NIDDM (individual NIDDM subjects D06-D10, GLP-1 0.4 pmol/kg/min i.v. for 12 hours with oscillatory glucose infusion). In addition, the “mean ISRs during GLP-1 infusion compared to saline infusion” value (in assay [1] (IGT subjects); in the assay with subjects with NIDDM (NIDDM subjects)) was “not significantly different” throughout. The “average drop of mean glucose levels during GLP-1 infusion compared to saline” value worked out at 2.4 ± 0.6 mM in assay [1] (IGT subjects, P<0.02, mean±SEM) and 5.2 ± 0.5 mM in the assay on subjects with NIDDM (diabetics (NIDDM), P<0.0005, mean±SEM). Also, the “mean normalized spectral power for glucose during GLP-1 infusion” value came out at 13.2±1.6 in assay [1] (IGT subjects, P=0.19 vs saline, mean±SEM) and 9.8±0.7 in the assay on subjects with NIDDM (NIDDM subjects, P=0.18 vs saline, mean±SEM). The “increase of mean insulin levels during GLP-1 infusion compared to saline” value in assay [1] (IGT subjects, P=0.32, mean±SEM) was 102 ± 90 pmol/L; in the assay with subjects with NIDDM (NIDDM subjects, P=0.56, mean±SEM), 7 ± 12 pmol/L. Moreover, the “Mean glucagon levels during GLP-1 infusion” value in assay [1] (IGT subjects, P=0.94 vs saline, mean±SEM) is 39.3 ± 5.4 pg/mL; with subjects with NIDDM (NIDDM subjects, P=0.4 vs saline, mean±SEM), 46.4 ± 3.2 pg/mL. Besides, the “Spectral power for ISR during GLP-1 infusion” value in assay [1] (IGT subjects, normalized, P<0.006 vs saline, mean±SEM) amounted to 8.9±1.7; in the assay with subjects with NIDDM (NIDDM subjects, normalized, P=0.6 vs saline, mean±SEM), 1.5±0.8. In assay [1] (individual IGT subject, period of exogenous glucose infusion 144 minutes), the “periodicity of the dominant spectral peak in ISR during GLP-1 infusion” value was found to be 144 min. Also, the “Spectral power during GLP-1 infusion, individual subject” value in assay [1] (one subject with IGT (D02, FIGS. 6A and 6B), 0.6 during saline) was 8.9; in the assay with subjects with NIDDM (one subject with NIDDM (D07, FIGS. 6C and 6D), 0.28 during saline), 1.51 and 1.5. Besides, the “pattern of insulin secretory responses to glucose during GLP-1 infusion” value in assay [1] (representative subjects with IGT, D01 and D02 (FIGS. 3B and 3D)) was “improved”; in the assay on subjects with NIDDM (two subjects with NIDDM, D07 and D09 (FIGS. 4B and 4D)), “not improved”.

On to “SEQ ID NO:6 (EGTFTSDVSSYLEGQAAKEFIAWLVKGR-NH2)”, for which the “production or release of insulin from the pancreas” value in the assay with pancreas is “do not stimulate the production or release of insulin from the pancreas”.

The values are drawn from patent publication US7265087B1, “Exendin improves β-cell response in subjects with impaired glucose tolerance” (priority 1998, dated 2007).
